From US20240075087A1, “COMPOSITIONS AND METHODS COMPRISING HEMP EXTRACT FOR THE TREATMENT OF ANIMALS IN NEED” (Portland Technology Holdings LLC, priority 2021, published 2024)
In brackets after ≈: the same amount, converted by molar mass.

Legend:
Type in all cases: cell-based, canine
[1] = test system: HMPOS osteosarcoma cell line; test: 48 hours MTT proliferation assay, HMPOS; conditions: pure compound
Description: 3-(4,5-Dimethylthaizol-2-yl)-2,5-diphenyltetrazolium bromide (MTT) assays are performed on all previously described cell lines; CMT12, HMPOS, D17, Abrams and 17-71. […] Cells are treated with vehicle (methanol or ethanol/DMSO mix) or various concentrations of the CBD, CBDA or CBD-rich hemp extract ranging from 0.42 to 20 μg/mL in serial dilution for 48 hours. MTT assays are performed after 48 hours of treatment by adding 20 μL of MTT dye ([…] filtered 5 mg/mL in phosphate-buffered saline [PBS]) to each well and incubating at 37° C. in 5% CO2 for 2 hours. The media is then aspirated, washed once with 200 μL of PBS and then solubilized in 200 μL of ethanol. Immediate analysis of the optical density of each well is performed using a spectrophotometric plate reader (Epoch; Biotek, Winooski, Vermont) at a wavelength of 570 nm as previously described (e.g., Vega-Avila E and Pugsley M K, An overview of colorimetric assay methods used to assess survival or proliferation of mammalian cells, Proc West Pharmacol Soc., 2011, 54, pp. 10-14 which is incorporated herein by reference in its entirety). The percent proliferating cells of control for each concentration is averaged and reported as a mean+/—SD from triplicate wells over three experiments.
For CBD, CBDA and hemp extract concentrations needed to obtain a 50% inhibition of cell proliferation (IC50) are then calculated across experiments by Probit analysis using XLFit5 software (IDBS, Guildford, United Kingdom) for reporting the results for each cell line.

[2] = test system: 17-71, CMT12 and D17 cell lines; test: Time course Western blot of signalling pathways, autophagy and caspase 3
Description: Cells are plated on 100 mm tissue culture-treated plates and incubated overnight in complete medium until 60% confluency is reached. […] Cells are harvested and lysed at each time point for control and CBD treated cells using mammalian lysis buffer (25 mM Tris, 100 mM NaCl, 1 mM EDTA, 1% Triton X-100, pH 7.4), and then centrifuged for 5 minutes at 12 000 g at 4° C. The supernatant is collected and the protein concentration is determined using the Bradford assay (Coomassie-dye; ThermoFisher Scientific Pierce, Waltham, Massachusetts). […] Membranes are incubated overnight in primary antibody solutions at a dilution of 1:1000 in TBST on a rocking platform at 4° C. Primary antibodies confirmed as cross reactive with canine cells or tissues include mouse extracellular regulated kinase (ERK) (R&D Biosciences, Boston, Massachusetts); rabbit anti-protein kinase B (AKT), Ser473 phosphorylated-AKT, stress-activated protein kinase/jun-amino-terminal kinase (SAPK/JNK), Thr183/Tyr185 phosphorylated-SAPK/JNK, mammalian target of rapamycin (mTOR), Ser2448 phosphorylated-mTOR, anti-Thr202/Tyr204 phosphorylated p44/42 MAPK (ERK1/2), anti-p38, anti-phosphorylated p38, anti-p62 and anti-LC3 A/B (Cell Signalling Technology, Danvers, Massachusetts)(e.g., Syrjä P, Anwar T, Jokinen T, Kyöstilä K, Jäderlund K H, Cozzi F, Rohdin C, Hahn K, Wohlsein P, Baumgärtner W, Henke D, Oevermann A, Sukura A, Leeb T, Lohi H, and Eskelinen E L, Basal Autophagy Is Altered in Lagotto Romagnolo Dogs with an ATG4D Mutation, Vet Pathol, 2017 November, 54(6), pp. 953-963, doi: 10.1177/0300985817712793; Gordon I K, Ye F, and Kent M, Evaluation of the mammalian target of rapamycin pathway and the effect of rapamycin on target expression and cellular proliferation in osteosarcoma cells from dogs, Amer J Vet Res, 2008, 69, pp. 1079-1084; Ikari A, Atomi K, Kinjo Y, and Sugatani J, Magnesium deprivation inhibits a MEK-ERK cascade and cell proliferation in epithelial Madin-Darby canine kidney cells, Life Sci, 2010, 86, pp. 766-773; and Levine C B, Bayle J, Biourge V, and Wakshlag J J, Effects and synergy of feed ingredients on canine neoplastic cell proliferation, BMC Vet Res, 2016, 12(1), 159, which are incorporated herein by reference in their entirety). Membranes are washed three times with TBST and incubated at room temperature for 1 hour in the corresponding secondary anti-rabbit IgG or anti-mouse IgG horseradish peroxidase-conjugated antibody at a dilution of 1:2000 (Cell Signalling Technology, Danvers, MA). Membranes are washed three times with TBST and visualized with a chemi-luminescent reagent (Clarity Western ECL Substrate; Bio-Rad, Hercules, California). Digital images are captured using an imaging system (Biospectrum 410; UVP, Upland, California or FluorChem E; Cell Biosciences, San Jose, California). Each blot is performed twice from two different experiments to confirm findings.

CMT12 and D17 cells = test: LC3A/B immunofluorescence; conditions: 10 μg/mL CBD, 6 hours
Description: CMT12 and D17 adherent cell lines are split into Nunc chamber slides (ThermoFisher Scientific, Rochester, New York) and the cells that are 70% confluent are treated for 6 hours with either methanol control or 10 μg/mL of CBD. Cells are fixed with 4% paraformaldehyde for 1 hour and then permeabilized with PBS containing 0.1% Triton X-100 for 30 minutes. Cells are then washed with PBS and incubated with bovine serum albumin (Sigma Aldrich, St. Louis, Missouri) for 30 minutes and then goat anti-serum (Vector Labs, Burlingame, California) for 1 hour and then washed twice with PBS for 10 minutes while rocking at room temperature. […] Coverslips are mounted using Vectrashield DAPI mounting media (Vector Labs, Burlingame, California) and the images are captured at the same fluorescence intensity for each image at 400 or 600 magnification and processed using an Olympus fluorescent microscope and DP controller software (Olympus Corp., Center Valley, Pennsylvania).

## C=C(C)[C@@H]1CCC(C)=C[C@H]1c1c(O)cc(CCCCC)cc1O [CBD, cannabidiol]
[1]; Canis lupus familiaris, read-out: IC50 (Probit)
  IC50: 3.6 µg/mL (≈ 11.4 µM)
[1]; P<0.05
  concentrations that significantly diminished proliferation vs vehicle control: ≥ 5 µg/mL
[2]; 10 μg/mL CBD, 2, 4, 8 hours
  caspase 3 activation: activation of caspase 3 which can also be seen at 2 hours in the 17-71 cells, but is not evident until hour 8 in the CMT12 and D17 CBD treated cells
[2]; 10 μg/mL CBD, 2, 4 and 8 hours
  AKT, phosphorylated-AKT, mTOR and phosphorylated-mTOR immunoblots: no depression or increased intensity of the signal over time
[2]; 10 μg/mL CBD, 2 to 8 hours, all three cell lines
  LC3II proportion of LC3 protein: increase in the LC3II proportion of LC3 protein
[2]; 10 μg/mL CBD, 8 hour time-course vs methanol vehicle
  ERK and JNK phosphorylation: repeatable increases in both ERK and JNK phosphorylation across all three cell lines
[2]; 10 μg/mL CBD, over 8 hours
  autophagy cargo carrier protein p62 (western blotting): marked decrease
[2]; CBD treatment
  p38 phosphorylation and activation: minimal influence on the p38 phosphorylation and activation
[2]; after 8 and 16 hours of CBD treatment vs methanol vehicle control
  cleaved caspase 3 (17 Kda) immunoblotting: cleaved caspase across all cell lines at both time points
CMT12 and D17 cells
  LC3A/B immunofluorescence: numerous discrete punctate intensely staining vesicles
